What was measured:
[1] = test system: AhR; test: AhR translocation in human peripheral CD8+ T cells; assay type: cell-based; details: resting and activated peripheral CD8+ T cells from breast and lung cancer patients, Kyn treatment
[2] = test system: PD-1; test: OVA-B16 melanoma-bearing mice with adoptively transferred CFSE-labeled OT-1 T cells, PD-1 expression; assay type: in vivo, mouse; details: Kyn 50 μg/mouse i.p. once every two days, three times; Day 7
Description: (6) C57BL/6 mice with 5×5 mm OVA-B16 melanoma were adoptively transferred with CFSE-labeled OT-1 CD8^+ T cells (4×10^6 cells/mouse, once every three days) on three occasions. At the same time, some mice were i.p. injected with Kyn (50 μg/mouse, once every two days) for three times. On Day 7 after transferring, CFSE^+CD8^+ T cells were isolated from tumor for flow cytometric analysis of PD-1 expression.
(8) The experimental steps were the same as those of step (7), except that C57BL/6 mice were treated with Kyn, DMF (5 μg/mouse, o.t., twice every day) or Kyn+DMF for 6 days. CFSE^+CD8^+ T cells from tumor were isolated for flow cytometric analysis of PD-1 expression.

[3] = test system: PD-1; test: PD-1 expression in resting CD8+ T cells treated with Kyn (flow cytometry); assay type: cell-based, mouse
Description: (1) CD8^+ T cells were treated with Kyn (200 μM) for the time periods. The expression of PD-1 was determined by flow cytometry.

[4] = test system: CD8^+ T cells; test: Kyn i.p. injection in WT or AhR-/- C57BL/6 mice, analysis of CD8+ T cells; assay type: in vivo, mouse
Description: (1) WT C57BL/6 mice were i.p. injected with PBS or Kyn (50 μg, once per day) for 5 days, and CD8^+ T cells were sorted by FACS from the spleen and mesenteric lymph nodes. PD-1 expression was determined by flow cytometry (FIG. 6A). Some CD8^+ T cells from spleen were immunostained with AhR and DAPI (FIG. 6B), and the mRNA expression of PAT4 and SLC7A8 was determined by real-time PCR (FIG. 6C). […] Bar, […]. (2) The experimental steps were the same as those of step (1), except that AhR^−/− mice were used. (3) PD-1 expression in resting or anti-CD3/CD28 bead-activated splenic CD8^+ T cells was determined, wherein said cells were isolated from AhR^−/− C57BL/6 mice injected with PBS or Kyn for 5 days.

[5] = test system: B16 melanoma; test: B16 melanoma-bearing C57BL/6 mice treated with Kyn, DMF or Kyn+DMF; assay type: in vivo, mouse
Description: (9) C57BL/6 mice with 5×5 mm B16 melanoma were treated with PBS, Kyn (50 μg/mouse, i.p., once every two days), DMF (5 μg/mouse, o.t., once every day) or Kyn+DMF for 6 days. PD-1 expression in CD8^+ T cells isolated from tumors was determined by flow cytometry (n=5). (14) The experimental steps were the same as those of step (9), except that the tumors were weighed. The weighing results were as shown in FIG. 6P. *p<0.05, **p<0.01; #p<0.05, ##p<0.01, as compared with CTL group. The data represented mean±SEM.

[6] = test system: PD-1; test: ID8 ovarian cancer and H22 hepatocarcinoma ascites peritoneal tumor models; assay type: in vivo, mouse; details: Kyn i.p., 6 days
Description: (10) C57BL/6 mice were intraperitoneally injected with 1×10^6 ID8 ovarian cancer cells. After 10 days, mice were intraperitoneally administered with PBS, Kyn, DMF or Kyn+DMF for 6 days. CD8^+ T cells from ascites were isolated and PD-1 expression was determined by flow cytometry (n=5).

[7] = test system: AhR; test: AhR localisation and expression in CD8+ T cells (confocal microscopy, western blot); assay type: cell-based, mouse; details: 48 h
Description: (1) CD8^+ T cells isolated from spleen were stimulated with 200 μM Kyn or Kyn+anti-CD3/CD28 beads for 48 h. CD8^+ T cells were fixed, stained with an anti-AhR antibody and imaged by confocal microscopy. Bar, […]. (2) The experimental steps were the same as those of step (1), except that the cytoplasmic and nuclear protein fractions were seperated prior to the western blot analysis of AhR. The intensity relative to that in the resting/Kyn group was calculated. (3) Western blot analysis of AhR expression in both resting CD8^+ T cells and anti-CD3/CD28 bead-activated CD8^+ T cells treated with PBS or Kyn (200 μM) for 48 h was carried out. AhR ratio of Nuc/Cyt was calculated relative to that in the Kyn (−) group.

[8] = test system: OT-1 CD8^+ T cells; test: IFN-γ expression of OT-1 CD8+ T cells co-cultured with OVA-peptide loaded APCs; assay type: cell-based, mouse; details: OT-1 CD8+ T cells pretreated with Kyn 200 μM 72 h, upon PD-1 blockade
Description: (10) Splenic APCs pulsed with OVA257-264 (2 μg/ml) were co-cultured with OT-1 CD8^+ T cells in the presence of IgG or anti-PD-1 neutralizing antibody (10 μg/ml) for 72 h. IFN-γ expression was measured by flow cytometry (left). Or, CD8^+ T cells from OT-1 mice were treated with Kyn (200 μM) for 72 h, then co-cultured with OVA-peptide loaded APCs and treated with or without anti-PD-1 neutralizing antibody for 72 h (right). The data represented mean±SEM.

Structure (SMILES): Nc1ccccc1C(=O)CC(N)C(=O)O (stereo not drawn) [Kyn, kynurenine]
- AhR localisation [1]: promoted the translocation of AhR from the cytosol to nucleus
- PD-1 expression in tumor-infiltrating CFSE+ T cells [2]: much higher levels of PD-1 expression
- time point of initial increase of PD-1 ([3]; Kyn alone): 48 h
- PD-1 expression ([3]; Kyn alone 200 μM): enough to upregulate PD-1
- PD-1 expression ([4]; AhR-/- mice, Kyn for 5 days): failed to induce
- PD-1 expression in CD8+ T cells of spleen and lymph nodes ([4]; WT C57BL/6 mice, Kyn 50 μg i.p. once per day, 5 days): upregulated PD-1 expression
- expression of Kyn transporters SLC7A8 and PAT4 ([4]; WT C57BL/6 mice, Kyn 50 μg i.p., 5 days): upregulated
- AhR localisation in CD8+ T cells ([4]; WT C57BL/6 mice, Kyn 50 μg i.p., 5 days, spleen): translocated to the nucleus
- PD-1 expression in CD8+ T cells isolated from tumor, spleen or lymph nodes ([5]; Kyn 50 μg/mouse i.p. once every two days, 6 days): upregulate
- tumor growth (tumors weighed) ([5]; Kyn-treatment): accelerated tumor growth
- PD-1 expression in peritoneal, splenic or lymph node CD8+ T cells [6]: promoted
- expression of IFN-γ and TNF-α [6]: inhibited
- AhR localisation ([7]; activated T cells, 200 μM Kyn): translocation of cytoplasmic AhR to the nucleus
- AhR expression ([7]; resting T cells, Kyn 200 μM, further increased in activated T cells): upregulated
- production of IFN-γ [8]: upregulated
